The values below are quoted from earlier work in patent US20130303466A1, “Chemosensory Receptor Ligand-Based Therapies” (ELCELYX THERAPEUTICS, INC., priority 2010, published 2013).

The test system of the first data set is gut hormone release. As to conditions: humans, instillation into the duodenum.
With `OC[C@H]1O[C@H](O[C@]2(CCl)O[C@H](CCl)[C@@H](O)[C@@H]2O)[C@H](O)[C@@H](O)[C@H]1Cl` [sucralose], the gut hormone release result is “no effect”.

In another data set the test system is GLP-1. As to conditions: rats; with administration of a DPP-IV inhibitor.
Consider `OCCN1C[C@H](O)[C@@H](O)[C@H](O)[C@H]1CO` [miglitol], for which the “increase in GLP-1” value is on record as “synergistic”.

Another data set deals with T1, sweet receptor (Homo sapiens, UniProt Q7RTX0+Q8TE23).
T1 sequence (Q8TE23 20-839): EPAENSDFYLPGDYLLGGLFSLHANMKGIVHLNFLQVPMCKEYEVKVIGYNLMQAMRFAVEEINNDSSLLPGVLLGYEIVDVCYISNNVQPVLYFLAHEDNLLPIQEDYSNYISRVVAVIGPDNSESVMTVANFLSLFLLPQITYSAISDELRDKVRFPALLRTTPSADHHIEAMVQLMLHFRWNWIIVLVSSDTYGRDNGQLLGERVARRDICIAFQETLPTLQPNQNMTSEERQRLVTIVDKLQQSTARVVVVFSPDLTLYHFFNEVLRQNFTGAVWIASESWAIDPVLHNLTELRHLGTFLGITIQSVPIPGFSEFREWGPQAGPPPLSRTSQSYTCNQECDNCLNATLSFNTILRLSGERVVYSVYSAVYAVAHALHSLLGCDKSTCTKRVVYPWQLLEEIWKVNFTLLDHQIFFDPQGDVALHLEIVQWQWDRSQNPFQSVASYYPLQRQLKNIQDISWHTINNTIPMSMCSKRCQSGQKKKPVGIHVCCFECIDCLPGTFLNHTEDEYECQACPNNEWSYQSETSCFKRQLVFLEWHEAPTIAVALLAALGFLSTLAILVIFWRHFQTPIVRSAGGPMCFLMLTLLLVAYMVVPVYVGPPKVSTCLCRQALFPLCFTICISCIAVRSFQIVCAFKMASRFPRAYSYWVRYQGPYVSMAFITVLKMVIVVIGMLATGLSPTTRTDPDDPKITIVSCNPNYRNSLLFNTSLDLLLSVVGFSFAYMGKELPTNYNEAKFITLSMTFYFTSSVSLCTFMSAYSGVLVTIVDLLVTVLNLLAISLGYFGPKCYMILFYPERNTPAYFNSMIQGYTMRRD
T1 sequence (Q7RTX0 21-852): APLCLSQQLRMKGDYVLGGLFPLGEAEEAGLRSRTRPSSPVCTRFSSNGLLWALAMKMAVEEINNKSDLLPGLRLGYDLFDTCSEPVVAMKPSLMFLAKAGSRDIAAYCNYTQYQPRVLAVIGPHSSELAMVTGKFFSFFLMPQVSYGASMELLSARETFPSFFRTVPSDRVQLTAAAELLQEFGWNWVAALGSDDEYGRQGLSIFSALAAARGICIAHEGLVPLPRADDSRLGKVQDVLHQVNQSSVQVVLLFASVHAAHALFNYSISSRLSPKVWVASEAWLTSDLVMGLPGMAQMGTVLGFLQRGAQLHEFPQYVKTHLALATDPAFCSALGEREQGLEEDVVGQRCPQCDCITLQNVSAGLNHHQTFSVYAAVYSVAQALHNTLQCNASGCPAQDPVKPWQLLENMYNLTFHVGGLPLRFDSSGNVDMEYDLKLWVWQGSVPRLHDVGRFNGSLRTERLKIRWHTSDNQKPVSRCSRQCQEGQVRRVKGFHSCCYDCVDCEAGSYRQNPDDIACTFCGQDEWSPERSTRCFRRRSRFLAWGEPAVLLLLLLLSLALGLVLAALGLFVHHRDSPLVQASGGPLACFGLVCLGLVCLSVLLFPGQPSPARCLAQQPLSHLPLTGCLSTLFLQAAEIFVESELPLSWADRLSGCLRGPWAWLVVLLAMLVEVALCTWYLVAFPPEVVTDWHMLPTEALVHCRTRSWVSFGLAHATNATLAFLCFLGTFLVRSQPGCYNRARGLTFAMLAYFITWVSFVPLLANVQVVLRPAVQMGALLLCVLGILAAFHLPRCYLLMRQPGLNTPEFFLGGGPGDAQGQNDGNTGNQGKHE
The following applies: relative sweetness on a weight comparison basis to sucrose (= 1.0); ranges: relative sweetness varied with the concentration of sucrose; adapted from Kim et al., 2002.
On to `Oc1ccc([C@H]2Oc3c(c(O)cc4c3[C@H]3c5c(O)cc(O)cc5O[C@@](c5ccc(O)cc5)(O4)[C@@H]3O)[C@H](c3c(O)cc(O)c4c3O[C@H](c3ccc(O)cc3)[C@@H](O)C4)[C@H]2O)cc1` [Selligueain A (96), Selligueain A], for which the Sweetness/potency is on record as 35.

For `C=C1C[C@@]23CC[C@H]4[C@@](C)(CCC[C@@]4(C)C(=O)O)[C@@H]2CC[C@]1(O[C@@H]1O[C@H](CO)[C@@H](O)[C@H](O)[C@H]1O[C@@H]1O[C@H](CO)[C@@H](O)[C@H](O)[C@H]1O)C3` [Steviolbioside (22), Steviolbioside], the Sweetness/potency is reported as 90. For the molecule `C=C1C[C@@]23CC[C@H]4[C@@](C)(CCC[C@@]4(C)C(=O)O[C@@H]4O[C@H](CO)[C@@H](O)[C@H](O)[C@H]4O)[C@@H]2CC[C@]1(O[C@@H]1O[C@H](CO)[C@@H](O)[C@H](O)[C@H]1O[C@@H]1O[C@H](CO)[C@@H](O)[C@H](O)[C@H]1O)C3` [Stevioside (5), Stevioside], the Sweetness/potency is reported as 210. Consider `CC[C@@H](C)C(=O)O[C@@H](C)[C@]1(O)CC[C@]2(O)[C@@H]3CC[C@H]4C[C@@H](O[C@@H]5C[C@H](O)[C@H](O[C@H]6C[C@H](OC)[C@H](O[C@H]7C[C@@H](OC)[C@H](O[C@H]8C[C@@H](OC)[C@H](O[C@@H]9O[C@H](C)[C@@H](O[C@@H]%10O[C@H](CO)[C@@H](O)[C@H](O)[C@H]%10O)[C@H](OC)[C@H]9O)[C@@H](C)O8)[C@@H](C)O7)[C@@H](C)O6)[C@@H](C)O5)CC[C@]4(C)[C@H]3C[C@@H](OC(C)=O)[C@]12C` [Telosmoside A15 (74), Telosmoside A15], for which the Sweetness/potency is recorded as 1000.

As to `O=C/C=C/c1ccccc1` [Trans-Cinnamaldehyde (79), Trans-Cinnamaldehyde], the Sweetness/potency is reported as 50. On to `C/C=C/c1ccc(OC)cc1` [trans-Anethole(78), trans-Anethole], for which the Sweetness/potency was 13. With “Albiziasaponin B [Albiziasaponin B (51)]”, the Sweetness/potency is recorded as 600. In the case of Baiyunoside [Baiyunoside (30)], the Sweetness/potency is listed as 500. As for “Brazzein: sweet protein from Pentadiplandra brazzeana Baillon (QDKCKKVYENYPVSKCQLANQCNYDCKLDKHARSGECFYDEKRNLQCICDYCEY; UniProt P56552 1-54, looked up)”, the Sweetness/potency is 2,000. Consider “Carnosifloside V [Carnosifloside V (35)]”, for which the Sweetness/potency was 51. On to Curculin, for which the Sweetness/potency is on record as 550. For “Cyclocarioside A [Cyclocarioside A (47)]”, the Sweetness/potency is on record as 200. “Cyclocaryoside I [Cyclocaryoside I (48)]”: the Sweetness/potency is given as 250. As for Dulcoside A [Dulcoside A (15)], the Sweetness/potency is listed as 30. Turning to Monellin, the Sweetness/potency was 3,000. Take Pentadin: the Sweetness/potency was 500. Periandrin II [Periandrin II (58)]: the Sweetness/potency is reported as 95.

For Periandrin IV [Periandrin IV (60)], the Sweetness/potency is 85. For the molecule Polypodoside A [Polypodoside A (65)], the Sweetness/potency is given as 600. Take “Pterocaryoside A [Pterocaryoside A (62)]”: the Sweetness/potency is reported as 50.

As for Rebaudioside B [Rebaudioside B (16)], the Sweetness/potency is listed as 150. As for Rebaudioside C [Rebaudioside C (17)], the Sweetness/potency was 30.

As to Scandenoside R6 [Scandenoside R6 (39)], the Sweetness/potency was 54.

Thaumatin: the Sweetness/potency is recorded as 1,600.
